According to the NIST ThermoML archive (doi:10.1021/je201289w):

What was measured:
[1] = 101.33 kPa, Liquid, Vibrating tube method
[2] = refractive index (Na D-line) (dimensionless); details: 101.33 kPa, Liquid, Standard Abbe refractometry

CCn1cc[n+](C)c1.N#C[B-](C#N)(C#N)C#N [1-ethyl-3-methylimidazolium tetracyanoborate]
Details	mass density, [1] [kg/m3]	refractive index, [2]
283.15 K	1041	1.45284
288.15 K	1037	1.45108
293.15 K	1032.9	1.44936
298.15 K	1028.9	1.44763
303.15 K	1024.9	1.44592
308.15 K	1020.9	1.44421
313.15 K	1016.9	1.44252
318.15 K	1013	1.44081
323.15 K	1009.1	1.43913
328.15 K	1005.2	1.43745
333.15 K	1001.3	1.43578
338.15 K	997.4	1.43412
343.15 K	993.6	1.43248
348.15 K	989.8	1.43085
353.15 K	986	1.42922

CCOS(=O)(=O)[O-].CCn1cc[n+](C)c1 [1-ethyl-3-methylimidazolium ethyl sulfate]
Details	mass density, [1] [kg/m3]	refractive index, [2]
283.15 K	1247.7	1.48317
288.15 K	1244.3	1.48185
293.15 K	1241	1.48053
298.15 K	1237.6	1.47921
303.15 K	1234.3	1.47789
308.15 K	1231	1.47657
313.15 K	1227.6	1.47528
318.15 K	1224.3	1.47395
323.15 K	1220.9	1.47262
328.15 K	1217.6	1.4713
333.15 K	1214.2	1.46994
338.15 K	1210.9	1.4685
343.15 K	1207.6	1.46723
348.15 K	1204.2	1.46596
353.15 K	1200.9	1.46468

CCC[N+]1(C)CCCC1.O=S(=O)([N-]S(=O)(=O)C(F)(F)F)C(F)(F)F
Details	mass density, [1] [kg/m3]	refractive index, [2]
283.15 K	1441	1.42474
288.15 K	1436.4	1.42336
293.15 K	1431.9	1.42201
298.15 K	1427.4	1.42064
303.15 K	1422.8	1.41925
308.15 K	1418.3	1.41792
313.15 K	1413.8	1.41656
318.15 K	1409.3	1.41519
323.15 K	1404.8	1.41389
328.15 K	1400.4	1.41252
333.15 K	1396	1.41119
338.15 K	1391.6	1.40986
343.15 K	1387.2	1.40853
348.15 K	1382.9	1.40718
353.15 K	1378.6	1.40589

CCn1cc[n+](C)c1.N#CN=C=[N-] [1-ethyl-3-methylimidazolium dicyanamide]
Details	mass density, [1] [kg/m3]	refractive index, [2]
283.15 K	1111.4	1.51774
288.15 K	1107.9	1.51605
293.15 K	1104.6	1.51441
298.15 K	1101.2	1.51278
303.15 K	1097.9	1.51121
308.15 K	1094.6	1.50963
313.15 K	1091.3	1.50808
318.15 K	1088	1.50655
323.15 K	1084.8	1.50502
328.15 K	1081.5	1.50351
333.15 K	1078.3	1.50191
338.15 K	1075.2	1.5003
343.15 K	1072	1.49865
348.15 K	1068.9	1.49708
353.15 K	1065.8	1.49557

CCn1cc[n+](C)c1.F[B-](F)(F)F [1-ethyl-3-methylimidazolium tetrafluoroborate]
Details	mass density, [1] [kg/m3]	refractive index, [2]
283.15 K	1292	1.41546
288.15 K	1288.2	1.41423
293.15 K	1284.3	1.413
298.15 K	1280.5	1.41177
303.15 K	1276.7	1.41055
308.15 K	1272.9	1.40934
313.15 K	1269.1	1.4081
318.15 K	1265.3	1.4069
323.15 K	1261.6	1.4057
328.15 K	1257.8	1.40452
333.15 K	1254	1.40327
338.15 K	1250.2	1.40211
343.15 K	1246.5	1.40093
348.15 K	1242.8	1.39975
353.15 K	1239.2	1.39858
